Each structure is given as a SMILES string.

For the experiment, the system named is NmGT8 protein. Kind of experiment: Enzyme reaction of flavone substrates with His-tag purified NmGT8 protein solution and UDP-glucose (HPLC). In kind it is biochemical, Nemophila menziesii. The settings on record: NmGT8 protein solution, UDP-glucose, 1 mM substrate stock, 20 minutes at 30° C., HPLC 330 nm. As to the method:
The transformed E. coli were cultured at 37° C. to an OD600 value of 0.5 in 8 ml of the prepared culture liquid (approx. 4 hours). This E. coli culture liquid was then used as a pre-culture liquid and added to 200 ml of culture liquid followed by final culturing overnight at 25° C.
Following final culturing overnight, the E. coli culture liquid was centrifuged (1000×g, 4° C., 10 minutes), the collected cells were suspended in 20 ml of extract (composition: buffer (KCl: 300 mM, KH2PO4: 50 mM, imidazole: 5 mm) (pH 8.0), amidinophenylmethanesulfonyl fluoride hydrochloride (APMSF): 10 μM), and after crushing the E. coli by ultrasonic treatment, the crushed cells were centrifuged (1400×g, 4° C., 20 minutes) followed by recovery of the supernatant. This supernatant was passed through a 0.45 μm filter and purified by His-Tag protein purification using Profinia (Bio-Rad Laboratories, Inc.) in accordance with the protocol recommended by the manufacturer. The resulting purified protein solution was centrifuged (7500×g, 4° C., 15 minutes) using centrifugal filters (Ultracel-10K, Amicon Corp.) and the concentrated protein solution was designated as “NmGT8 Protein Solution”. The Avanti HP-26XP (rotor: JA-2) (Beckman Coulter Inc.) was used for centrifugation.
A reaction liquid prepared by mixing 10 μl of protein solution, 2 μl of 50 mM UDP-glucose, 10 μl of 1 M Tris HCl (pH 7.5) and 5 μl of 1 mM apigenin on ice and bringing to a volume of 100 μl with water was held for 20 minutes at 30° C. Subsequently, 100 μl of stop buffer (90% aqueous acetonitrile solution containing 0.1% TFA) were added to stop the reaction followed by analyzing the reaction liquid by high-performance liquid chromatography (Prominence (Shimadzu Corp.)). The Shimadzu PDA SPD-M10AVP was used for the detector and flavone was detected at 330 nm. The Shim-Pack ODS 150 mm×4.6 mm column (Shimadzu Corp.) was used for the column. A Solution A (0.1% aqueous TFA solution) and a Solution B (90% aqueous methanol solution containing 0.1% TFA) were used for elution. Elution was carried out using a linear concentration gradient from an 8:2 mixture of the two solutions to a 3:7 mixture of the two solutions over the course of 10 minutes followed by a 3:7 mixture for 6 minutes. The flow rate was 0.6 ml/min.
For `O=c1cc(-c2ccc(O)cc2)oc2cc(O[C@@H]3O[C@H](CO)[C@@H](O)[C@H](O)[C@H]3O)cc(O)c12` [apigenin 7-glucoside], the “glycosylation product biosynthesized from the substrate” value (shortened to “glycosylation product biosynthesized”) is listed as “apigenin 4′,7-diglucoside was not biosynthesized”.

As to `O=c1cc(-c2ccc(O)cc2)oc2cc(O)cc(O)c12` [apigenin, 4′,5,7-trihydroxyflavone], the “glycosylation product biosynthesized” value was “flavone demonstrating the same retention time and absorption maximum as purified apigenin 4′-glucoside was biosynthesized”.

With `O=c1cc(-c2ccc(O)c(O)c2)oc2cc(O[C@@H]3O[C@H](CO)[C@@H](O)[C@H](O)[C@H]3O)cc(O)c12` [luteolin 7-glucoside], the “glycosylation product biosynthesized” value is on record as “luteolin 4′,7-diglucoside was also not biosynthesized”.

On to `O=c1cc(-c2ccc(O)c(O)c2)oc2cc(O)cc(O)c12` [luteolin, 3′,4′,5,7-tetrahydroxyflavone], for which the “glycosylation product biosynthesized” value is “Luteolin 4′-glucoside was biosynthesized”.

The values are drawn from patent US10059956B2, “Glycosyltransferase gene and use thereof” (SUNTORY HOLDINGS LIMITED, priority 2012, dated 2018).
